Test results: article PMC3343456 (Angewandte Chemie (International ed. in English), 2011)

Target: GilOI (Streptomyces griseoflavus, UniProt Q7X2G6)
Experiment: cofactor content of the purified enzyme
Type: binding

Cc1cc2nc3c(=O)[nH]c(=O)nc-3n(C[C@H](O)[C@H](O)[C@H](O)COP(=O)(O)OP(=O)(O)OC[C@H]3O[C@@H](n4cnc5c(N)ncnc54)[C@H](O)[C@@H]3O)c2cc1C [flavin adenine dinucleotide]
cofactor content of the purified enzyme (Figure S3): GilOI and GilOIV are oxygenases that contain flavin adenine dinucleotide (FAD, Figure S3
